According to patent publication US7572774B2, “Methods for treating glutamate cytotoxicity with beta-naphthoquinone compounds” (Centre National de la Recherche Scientific (C.N.R.S.), priority 1999, dated 2009):

Test system: release of glutamate from synaptosomes of mouse brains
Assay: Release of glutamate from synaptosomes of mouse brains (cerebellar mossy fibers), spontaneous and induced by depolarization, chemiluminescence detection
Format: cell-based
Method: B: Study of the effect of naftazone and of its glucuronide derivatives on the release of glutamate from synaptosomes of mouse brains.
In order to prepare the synaptosomes of mossy fibers, the Swiss-Webster […] are decapitated and the cerebellum is rapidly removed. Small pieces of tissue (1–2 mm^3) are washed in 100 ml of a mammal saline standard solution containing (mM): NaCl, 136; KCl, 5.6; MgCl2 1.2; CaCl2 2.2; glucose 5.5; NaHCO3 7.5; NaHPO4/Na2HPO4 buffer 1.2.
An oxygen current is caused to flow through them for 10 minutes.
In order to dissociate the pieces, they are sucked in a reciprocal movement with a 1 ml pipette.
The homogenate obtained is diluted in 3 ml of mammal Krebs's solution and is filtered through a Nylon® tissue (mesh 50 μm).
The filtrate is collected and left to settle for 30–45 min by gravity.
Synaptosomes derived from the glutarmatergic mossy fibers settle because or their large size with the nuclear fraction. The supernatant is discarded and the sediment is resuspended in 1 ml of a standard solution. The release of glutamate from the synaptosomes is detected according to the technique used for evaluating it in the CSF.
FIGS. 2A and 2B show the effects of naftazone (at concentrations of 0.5–50 μM) and of its glucuronidated derivative, respectively, on the spontaneous release of glutamate (curve -∘-) and of that induced by depolarization (curve -•-).
Each point in A and B represents the ISEM average of 3 measurements carried out in triple. In A, the spontaneously released glutamate is continuously measured during an exposure of 1 hour to the tested drug and is compared with controls. Release of glutamate by depolarization is determined after a 1 hour exposure to the tested drug and is compared with controls.
The drugs are left to incubate for 1 hour with synaptosomal aliquots before the measurement.

## NC(=O)NNc1ccc2ccccc2c1O[C@@H]1O[C@H](C(=O)O)[C@@H](O)[C@H](O)[C@H]1O [glucuronidated derivative, 1-(1-hydroxy,2-naphthyl)semicarbazide-1-β-O-glucopyranosiduronic acid]
K+ (20 mM) containing Ca (5 mM), FIG. 2B
  release of glutamate induced by a medium with a high K+ content: reduces, in a dose-dependent way
At highest concentration tested (32 μM), K+ 20 mM, Ca 5 mM
  maximum reduction of K+-induced release of glutamate: about 60%
Glucuronidated derivative, range of the concentrations used (FIG. 2B)
  spontaneous release of glutamate from synaptosomes: does not reduce the spontaneous release of glutamate
